Assay results as given in ChEMBL document CHEMBL4251632, “Synthesis and antidepressant-like activity of novel aralkyl piperazine derivatives targeting SSRI/5-HT1A/5-HT7” (Eur J Med Chem, 2018).

What was measured:
[1] = target: T1, 5-hydroxytryptamine receptor 1A (Homo sapiens, UniProt P08908); test: Displacement of [3H]8-OH-DPAT from recombinant human 5-HT1A receptor expressed in HEK293 cell membranes after 60 mins by TopCount scintillation counting method
T1 sequence (P08908 whole entry): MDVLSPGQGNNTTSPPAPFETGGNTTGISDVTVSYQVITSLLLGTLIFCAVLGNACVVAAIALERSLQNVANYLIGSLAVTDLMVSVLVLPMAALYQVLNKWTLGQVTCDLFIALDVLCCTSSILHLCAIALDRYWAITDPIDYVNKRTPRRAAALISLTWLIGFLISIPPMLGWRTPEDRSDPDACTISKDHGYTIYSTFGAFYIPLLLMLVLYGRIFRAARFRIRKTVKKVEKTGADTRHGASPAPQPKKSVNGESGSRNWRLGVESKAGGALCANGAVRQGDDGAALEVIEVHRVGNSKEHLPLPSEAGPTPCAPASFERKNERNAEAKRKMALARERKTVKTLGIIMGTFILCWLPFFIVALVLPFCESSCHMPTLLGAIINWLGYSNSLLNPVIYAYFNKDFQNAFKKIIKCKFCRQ

[2] = Clearance in rat liver microsomes at 1 uM in presence of NADPH by LC-MS/MS analysis; format: ADME, microsome; conditions: read-out: CLH
in vitro = conditions: rat, liver microsomes
Description: Half life in rat liver microsomes at 1 uM in presence of NADPH by LC-MS/MS analysis

[3] = target: T2, 5-hydroxytryptamine receptor 1A (Homo sapiens) (UniProt P08908); test: Displacement of [3H]8-OH-DPAT from recombinant human 5-HT1A receptor expressed in HEK293 cell membranes at 10 uM after 60 mins by TopCount scintillation counting method relative to control
T2 sequence (whole entry): T1 sequence (P08908 whole entry)

[4] = target: Sodium-dependent serotonin transporter (Rattus norvegicus, UniProt P31652); test: Inhibition of [3H]serotonin reuptake in rat brain synaptosomes SERT after 15 mins by TopCount scintillation counting method; format: subcellular
[5] = target: T3, 5-hydroxytryptamine receptor 7 (Homo sapiens, UniProt P34969); test: Displacement of [3H]LSD from recombinant human 5-HT7 receptor expressed in CHO cell membranes at 10 uM after 120 mins by TopCount scintillation counting method relative to control
[6] = target: T3, 5-hydroxytryptamine receptor 7; test: Displacement of [3H]LSD from recombinant human 5-HT7 receptor expressed in CHO cell membranes after 120 mins by TopCount scintillation counting method
[7] = target: Sodium-dependent serotonin transporter (Rattus norvegicus) (UniProt P31652); test: Inhibition of [3H]serotonin reuptake in rat brain synaptosomes SERT at 10 uM after 15 mins by TopCount scintillation counting method relative to control; format: subcellular
[8] = target: Sodium-dependent serotonin transporter (Homo sapiens, UniProt P31645)
Description: Inhibition of serotonin reuptake in SERT (unknown origin)

Mus musculus [9] = test: Antidepressant-like activity in mouse assessed as reduction in immobility time at 40 mg/kg/day, po once daily for 7 days measured for last 4 mins of 6 mins test at 1 hr post last dose by forced swim test relative to control; format: functional; design: scale not given: the % may be the effect or the level left
Mus musculus [10] = test: Antidepressant-like activity in mouse assessed as reduction in immobility time at 10 mg/kg/day, po once daily for 7 days measured for last 4 mins of 6 mins test at 1 hr post last dose by forced swim test relative to control; format: functional; design: scale not given: the % may be the effect or the level left
Mus musculus [11] = test: Antidepressant-like activity in po dosed mouse assessed as reduction in immobility time administered once daily for 7 days measured for last 4 mins of 6 mins test at 1 hr post last dose by forced swim test; format: functional, organism-based
Mus musculus [12] = test: Antidepressant-like activity in mouse assessed as reduction in immobility time at 20 mg/kg/day, po once daily for 7 days measured for last 4 mins of 6 mins test at 1 hr post last dose by forced swim test relative to control; format: functional; design: scale not given: the % may be the effect or the level left
Mus musculus [13] = test: Antidepressant-like activity in mouse assessed as reduction in immobility time at 40 mg/kg/day, po administered once daily for 7 days measured for 5 mins at 1 hr post last dose by tail suspension test relative to control; format: functional; design: scale not given: the % may be the effect or the level left

T3 sequence (P34969 whole entry): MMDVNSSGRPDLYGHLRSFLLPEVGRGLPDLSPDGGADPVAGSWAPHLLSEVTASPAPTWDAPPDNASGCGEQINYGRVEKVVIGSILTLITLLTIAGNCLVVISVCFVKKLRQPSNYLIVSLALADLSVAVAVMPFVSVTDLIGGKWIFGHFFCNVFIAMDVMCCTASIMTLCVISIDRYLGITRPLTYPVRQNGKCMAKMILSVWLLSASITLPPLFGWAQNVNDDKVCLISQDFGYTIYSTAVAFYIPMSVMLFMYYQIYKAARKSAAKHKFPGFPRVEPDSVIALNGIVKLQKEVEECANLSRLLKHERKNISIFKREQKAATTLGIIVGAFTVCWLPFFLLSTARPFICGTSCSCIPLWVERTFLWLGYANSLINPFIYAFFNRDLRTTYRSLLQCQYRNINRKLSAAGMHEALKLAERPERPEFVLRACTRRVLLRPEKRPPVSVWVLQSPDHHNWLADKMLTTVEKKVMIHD
Sodium-dependent serotonin transporter (Rattus norvegicus), sequence (P31652 whole entry): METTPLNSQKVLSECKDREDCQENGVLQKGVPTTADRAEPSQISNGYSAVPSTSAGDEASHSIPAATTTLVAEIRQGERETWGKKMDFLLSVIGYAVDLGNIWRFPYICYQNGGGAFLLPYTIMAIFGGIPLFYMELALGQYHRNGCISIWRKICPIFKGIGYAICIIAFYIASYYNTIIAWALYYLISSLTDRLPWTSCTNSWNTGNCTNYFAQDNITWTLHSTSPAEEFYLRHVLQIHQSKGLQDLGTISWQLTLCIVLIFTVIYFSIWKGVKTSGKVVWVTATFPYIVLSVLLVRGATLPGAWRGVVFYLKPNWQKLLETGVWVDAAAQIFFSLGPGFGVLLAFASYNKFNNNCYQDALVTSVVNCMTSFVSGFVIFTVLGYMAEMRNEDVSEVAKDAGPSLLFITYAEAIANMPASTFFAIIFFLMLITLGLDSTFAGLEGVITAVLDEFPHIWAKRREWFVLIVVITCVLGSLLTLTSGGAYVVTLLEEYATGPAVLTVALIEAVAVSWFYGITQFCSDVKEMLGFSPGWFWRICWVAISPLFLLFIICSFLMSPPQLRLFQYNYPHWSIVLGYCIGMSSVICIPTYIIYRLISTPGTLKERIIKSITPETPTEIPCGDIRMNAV
Sodium-dependent serotonin transporter (Rattus norvegicus, UniProt P31652), sequence (P31652 whole entry): as above
Sodium-dependent serotonin transporter (Homo sapiens, UniProt P31645), sequence (P31645 whole entry): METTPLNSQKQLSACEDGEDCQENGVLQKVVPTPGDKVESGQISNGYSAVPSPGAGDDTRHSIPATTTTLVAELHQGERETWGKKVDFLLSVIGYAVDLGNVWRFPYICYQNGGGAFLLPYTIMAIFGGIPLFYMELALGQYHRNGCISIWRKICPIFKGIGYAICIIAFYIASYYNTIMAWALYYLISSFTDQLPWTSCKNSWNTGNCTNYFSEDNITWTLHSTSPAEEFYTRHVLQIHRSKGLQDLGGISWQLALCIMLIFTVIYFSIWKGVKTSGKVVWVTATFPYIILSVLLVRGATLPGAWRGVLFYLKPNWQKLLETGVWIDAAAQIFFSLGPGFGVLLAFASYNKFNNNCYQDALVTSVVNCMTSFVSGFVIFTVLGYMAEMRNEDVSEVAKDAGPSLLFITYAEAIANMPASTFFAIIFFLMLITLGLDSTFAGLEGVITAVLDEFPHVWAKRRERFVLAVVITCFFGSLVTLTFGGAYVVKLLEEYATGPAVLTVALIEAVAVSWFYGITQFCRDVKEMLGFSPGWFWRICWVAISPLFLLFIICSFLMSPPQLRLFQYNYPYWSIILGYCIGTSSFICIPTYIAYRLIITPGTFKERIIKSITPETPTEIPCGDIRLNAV

Row | SMILES | Ki [1] [µM] | IC50 [4] [µM] | Ki [6] [µM] | microsomal CLint at 1 µM [2] [µL/min/mg] | half-life at 1 µM (in vitro) [min] | inhibition [3] [%] | inhibition [5] [%] | inhibition [7] [%] | further results
1 | Fc1ccc2[nH]cc(CCN3CCN(c4ccccc4-c4ccccc4)CC3)c2c1 | 0.00053 | 0.11 | 0.00026 | 226 | 6.1 | > 90 | > 90 | > 90 | –
2 | c1ccc(-c2cccc(N3CCN(CCc4coc5ccccc45)CC3)c2)cc1 | – | – | – | – | – | 97.5 | 71.9 | 99.4 | –
3 | Fc1cc2c(c(OCCNCCCc3c[nH]c4ccc(F)cc34)c1)OCCC2 | – | – | – | – | – | – | – | – | Ki [8]: 0.00047 µM
4 | Cc1cccc(-c2ccccc2N2CCN(CCc3c[nH]c4ccc(F)cc34)CC2)c1 | – | 0.16 | – | – | – | 98.1 | 97.3 | > 90 | –
5 | Fc1cccc(-c2ccccc2N2CCN(CCc3c[nH]c4ccc(F)cc34)CC2)c1 | 0.0056 | 0.15 | 0.00079 | 155 | 9 | > 90 | 0.79 | > 90 | –
6 | COc1ccccc1N1CCN(CCCN2CCOc3ccccc32)CC1 | – | – | – | – | – | – | – | – | Ki [8]: 0.195 µM
7 | Cc1ccc(Sc2ccccc2N2CCNCC2)c(C)c1 [VORTIOXETINE] | – | – | – | – | – | – | – | – | Activity (Mus musculus [9]): 48 - 52%
8 | CSc1ccccc1N1CCN(CCc2coc3ccccc23)CC1 | – | – | – | – | – | 99.7 | 86.8 | 112 | –
9 | COc1ccc(-c2ccccc2N2CCN(CCc3c[nH]c4ccc(F)cc34)CC2)cc1 | – | – | – | – | – | 99.2 | 94.7 | 82.8 | –
10 | Cc1ccc(-c2ccccc2N2CCN(CCc3c[nH]c4ccc(F)cc34)CC2)cc1 | – | 1.7 | – | – | – | 101 | 99.5 | > 90 | –
11 | COc1ccccc1N1CCN(CCc2coc3ccccc23)CC1 | – | – | – | – | – | 98.5 | 85.6 | 110 | –
12 | COc1ccc(C(CN(C)C)C2(O)CCCCC2)cc1 (stereo not given) [VENLAFAXINE] | – | – | – | – | – | – | – | – | Activity (Mus musculus [13]): 35%
13 | N#Cc1ccc(-c2ccccc2N2CCN(CCc3c[nH]c4ccc(F)cc34)CC2)cc1 | – | – | – | – | – | 99.5 | 97.3 | 84.2 | –
14 | Fc1ccc(-c2ccccc2N2CCN(CCc3c[nH]c4ccc(F)cc34)CC2)cc1 | – | 0.59 | – | 144 | 9.6 | 101 | 94.9 | > 90 | –
15 | Fc1ccc2[nH]cc(CCN3CCN(c4ccccc4-c4ccccc4F)CC3)c2c1 | 0.025 | 0.096 | 0.0023 | 343 | 4 | > 90 | > 90 | > 90 | –
16 | N#Cc1ccc2[nH]cc(CCN3CCN(c4ccccc4-c4ccccc4)CC3)c2c1 | – | 0.19 | – | – | – | 97.6 | 93.7 | > 90 | –

Further lines, with some results ahead:

Row | Ki [1] [µM] | IC50 [4] [µM] | Ki [6] [µM] | SMILES | microsomal CLint at 1 µM [2] [µL/min/mg] | half-life at 1 µM (in vitro) [min] | inhibition [3] [%] | inhibition [5] [%] | inhibition [7] [%] | further results
17 | 0.013 | 0.0076 | 0.0011 | Fc1ccc2[nH]cc(CCCN3CCN(c4ccccc4-c4ccccc4)CC3)c2c1 | – | – | > 90 | > 90 | > 90 | –
18 | – | 0.21 | – | c1ccc(-c2ccccc2N2CCN(CCc3coc4ccccc34)CC2)cc1 | – | – | 99.5 | 102 | > 90 | –
19 | – | 2.9 | – | c1ccc(-c2ccccc2N2CCN(CCc3cc4ccccc4o3)CC2)cc1 | – | – | 97.7 | 96.4 | > 90 | –
20 | – | 0.12 | – | Fc1cccc(-c2cc(F)ccc2N2CCN(CCCCc3c[nH]c4ccc(F)cc34)CC2)c1 | – | – | 96 | 97.5 | > 90 | –
21 | 0.062 | 0.031 | 0.012 | Fc1cccc(-c2cc(F)ccc2N2CCN(CCCc3c[nH]c4ccc(F)cc34)CC2)c1 | 24.4 | 56.8 | > 90 | > 90 | > 90 | Activity (Mus musculus [9]): 37%; Activity (Mus musculus [10]): 18%; Activity (Mus musculus [11]): Dose-dependent effect; Activity (Mus musculus [12]): 21%
22 | 0.015 | 0.0094 | 0.0026 | Fc1cccc(-c2ccc(F)cc2N2CCN(CCCc3c[nH]c4ccc(F)cc34)CC2)c1 | 48.1 | 28.8 | > 90 | > 90 | > 90 | –
23 | 0.0081 | 0.042 | 0.0011 | Fc1cccc(-c2ccccc2N2CCN(CCCc3c[nH]c4ccc(F)cc34)CC2)c1 | 50 | 27.7 | > 90 | > 90 | > 90 | –
24 | 0.018 | 0.01 | 0.00055 | Fc1cccc(-c2c(F)cccc2N2CCN(CCCc3c[nH]c4ccc(F)cc34)CC2)c1 | 51.5 | 26.9 | > 90 | > 90 | > 90 | –
